Measured values from patent US20100035753A1, “Fungicidal Mixtures Comprising Substituted 1-methylpyrazol-4-ylcarboxanilides” (BASF SE, priority 2007, published 2010).
Where two headings read alike, the source gives them in different places.

Experiments:
[1] = tested on: Ramularia collo-cygni/Physiological leaf spots; experiment: Control of phytopathogenic fungi in barley (statement in the description); assay type: in vivo; conditions: solo or in combination with an active compound II
Pyricularia oryzae [2] = assay type: cell-based
Septoria tritici [3] = experiment: Use Example 13: control of Septoria tritici; assay type: cell-based
Botrytis cinerea [4] = experiment: Use Example 9.2: activity against grey mold in the microtiterplate test; assay type: cell-based
Alternaria solani = experiment: Use Example 1: preventative fungicidal control of early blight on tomatoes; assay type: in vivo; conditions: 0.25 ppm
Experimental: (§1) The active compounds, separately or jointly, were prepared as a stock solution comprising 25 mg of active compound which was made up to 10 ml using a mixture of acetone and/or DMSO and the emulsifier Uniperol® EL (wetting agent having an emulsifying and dispersing action based on ethoxylated alkylphenols) in a ratio by volume of solvent/emulsifier of 99:1. The mixture was then made up to 100 ml with water. This stock solution was diluted with the solvent/emulsifier/water mixture described to give the concentration of active compound stated below.
(§2) The visually determined percentages of infected leaf areas were converted into efficacies in % of the untreated control:
(§3) The efficacy (E) is calculated as follows using Abbot's formula: […]
(§4) α corresponds to the fungicidal infection of the treated plants in % and
(§5) β corresponds to the fungicidal infection of the untreated (control) plants in %
(§6) An efficacy of 0 means that the infection level of the treated plants corresponds to that of the untreated control plants; an efficacy of 100 means that the treated plants were not infected.
(§7) The expected efficacies of active compound combinations were determined using Colby's formula (Colby, S. R. “Calculating synergistic and antagonistic responses of herbicide combinations”, Weeds, 15, pp. 20-22, 1967) and compared with the observed efficacies.
(§8) Colby's formula: E=x+y−x·y/100 • E expected efficacy, expressed in % of the untreated control, when using the mixture of the active compounds A and B at the concentrations a and b • x efficacy, expressed in % of the untreated control, when using the active compound A at the concentration a • y efficacy, expressed in % of the untreated control, when using the active compound B at the concentration b
Young seedlings of tomato plants were grown in pots. […] After 5 days at 20 to 22° C. and a relative humidity close to 100%, the extent of fungal attack on the leaves was visually assessed as % diseased leaf area.

Botrytis cinerea [5] = experiment: Use Example 2: preventative control of grey mold on leaves of green pepper; assay type: in vivo; conditions: 4 ppm
Experimental: as §1, §2, §3, §4
(§9) β corresponds to the fungicidal infection of the untreated (control) plants in % […]
(§10) The expected efficacies of active compound combinations were determined using Colby's formula (Colby, S. R. “Calculating synergistic and antagonistic responses of herbicide combinations”, Weeds, 15, pp. 20-22, 1967) and compared with the observed efficacies. […]
Young seedlings of green pepper were grown in pots to the 2 to 3 leaf stage. […] After 5 days at 22 to 24° C. and a relative humidity close to 100% the extent of fungal attack on the leaves was visually assessed as % diseased leaf area.

Phytophthora infestans [6] = assay type: in vivo
Puccinia recondita [7] = experiment: Use Example 5: curative control of brown rust on wheat; assay type: in vivo
Experimental: as §1, §2, §3, §4, §5, §6, §7, §8
The first two developed leaves of pot-grown wheat seedling were dusted with spores of Puccinia recondita. To ensure the success the artificial inoculation, the plants were transferred to a humid chamber without light and a relative humidity of 95 to 99% and 20 to 22° C. for 24 h. The next day the plants were sprayed to run-off with an aqueous suspension, containing the concentration of active ingredient or their mixture as described below. The plants were allowed to air-dry. Then the trial plants were cultivated for 8 days in a greenhouse chamber at 22-26° C. and a relative humidity between 65 and 70%. The extent of fungal attack on the leaves was visually assessed as % diseased leaf area.

Puccinia recondita [8] = experiment: Use Example 6: preventative control of brown rust on wheat; assay type: in vivo; conditions: 0.25 ppm
Experimental: as §1, §2, §3
α corresponds to the fungicidal infection of the treated plants in % and […]
as §10
The first two developed leaves of pot-grown wheat seedling were sprayed to run-off with an aqueous suspension, containing the concentration of active ingredient or their as described below. […] The extent of fungal attack on the leaves was visually assessed as % diseased leaf area.

Septoria tritici [9] = tested on: Septoria tritici
Phytophthora infestans [10] = assay type: cell-based
Pyricularia oryzae [11] = assay type: cell-based; conditions: 0.25 ppm
Phytophthora infestans [12] = assay type: cell-based; remark: listed apart in the source
[13] = tested on: Blumeria graminis f. sp. tritici; experiment: Use Example 4: control of powdery mildew on wheat; assay type: in vivo; conditions: 0.25 ppm
Experimental: as §1, §2, §3, §10
The first fully developed leaves of pot grown wheat were sprayed to run-off with an aqueous suspension, containing the concentration of active ingredient or their mixture mentioned in the table below. […] After cultivation in the greenhouse for 7 days at 22-26° C. and a relative humidity between 60 to 90% the extent of fungal attack on the leaves was visually assessed as % diseased leaf area.

Pyrenophora teres = experiment: Use Example 7: control of net blotch on barley; assay type: in vivo, Pyrenophora (syn. Drechslera) teres
Experimental: as §1, §2, §3, §10
The first fully developed leaves of pot grown barley plants were sprayed to run-off with an aqueous suspension, containing the concentration of active ingredient or their mentioned in the table below. […] After 6 days of cultivation at 20-24° C. and a relative humidity close to 70%, the extent of fungal attack on the leaves was visually assessed as % leaf area.

Phakopsora pachyrhizi = experiment: Use Example 8: curative control of soy bean rust on soy beans; assay type: in vivo; conditions: 0.25 ppm
Experimental: as §1, §2, §3, §4, §9, §10
Leaves of pot-grown soy bean seedlings were inoculated with spores of Phakopsora pachyrhizi. […] The extent of fungal attack on the leaves was visually assessed as % diseased leaf area.

Cn1cc(C(=O)Nc2ccc(F)cc2-c2ccc(Cl)c(Cl)c2)c(C(F)F)n1 [N-(3′,4′-dichloro-5-fluorobiphenyl-2-yl)-1-methyl-3-difluoromethyl-1H-pyrazole-4-carboxamide]
activity against Ramularia collo-cygni/Physiological leaf spots [1]: excellent activity

CCC(=O)C1=C([O-])CC(C(=O)[O-])CC1=O.[Ca+2] (centres unmarked) [prohexadione-Ca]
Observed activity (%) (Pyricularia oryzae [2]; 0.25 ppm): 0% | Observed fungicidal efficacy (%) (Septoria tritici [3]; 0.25 ppm): 0%

Clc1cccc(C(Cl)(Cl)Cl)n1 [nitrapyrin]
Observed activity (%) (Botrytis cinerea [4]; 0.016 ppm): 10%

Clc1ccc(C2(Cn3cncn3)OCCO2)c(Cl)c1 [azaconazole]
Observed fungicidal efficacy (% of untreated control) (Alternaria solani): 0% | Observed efficacy (% of untreated control) (Botrytis cinerea [5]): 0% | Observed activity (% infection) (Phytophthora infestans [6]; 4 ppm): 0% | Observed efficacy (% of untreated control) (Puccinia recondita [7]; 0.25 ppm): 0% | Observed efficacy (% of untreated control) (Puccinia recondita [8]): 0% | Observed activity (Septoria tritici [9]; 0.016 ppm): 19%

COC(=O)[C@@H](C)N(C(=O)Cc1ccccc1)c1c(C)cccc1C [Benalaxyl-M, benalaxyl-M, reference compound]
Observed activity (% infection) (Phytophthora infestans [10]; 16 ppm): 18% | Observed activity (%) (Pyricularia oryzae [11]): 0%

CCOC(=O)C1CC(=O)C(=C(O)C2CC2)C(=O)C1 (centres unmarked) [Trinexapac-ethyl]
Observed activity (% infection) (Phytophthora infestans [12]; 63 ppm): 39%

CCN(C)C=Nc1cc(C)c(Oc2ccc(F)c(C(F)(F)F)c2)cc1C [N′-(4-(4-fluoro-3-trifluoromethyl-phenoxy)-2,5-dimethyl-phenyl)-N-ethyl-N-methyl formamidine]
Observed fungicidal efficacy (% of untreated control) (Alternaria solani): 0% | Observed activity (% infection) (Phytophthora infestans [6]; 16 ppm): 0% | Observed efficacy (% of untreated control) [13]: 38% | Observed efficacy (% of untreated control) (Puccinia recondita [7]; 0.25 ppm): 67% | Observed efficacy (% of untreated control) (Pyrenophora teres; 1 ppm): 13%

CCC(=O)C1=C([O-])CC(C(=O)[O-])CC1=O.[Ca+2] (centres unmarked) [Prohexadione-Ca]
Observed activity (% infection) (Phytophthora infestans [12]; 16 ppm): 17%

Cc1nn(C)c(F)c1C(=O)Nc1ccccc1C(C)CC(C)C (centres unmarked) [N-(2-(1,3-dimethylbutyl)-phenyl)-1,3-dimethyl-5-fluoro-1H-pyrazole-4-carboxylic acid amide]
Observed efficacy (% of untreated control) (Botrytis cinerea [5]): 0% | Observed activity (% infection) (Phytophthora infestans [6]; 1 ppm): 0% | Observed activity (% infection) (Phytophthora infestans [6]; 4 ppm): 0% | Observed efficacy (% of untreated control) (Puccinia recondita [7]; 0.25 ppm): 0% | Observed efficacy (% of untreated control) (Puccinia recondita [7]; 1 ppm): 0% | Observed efficacy (% of untreated control) (Phakopsora pachyrhizi): 60% | Observed activity (Septoria tritici [9]; 0.004 ppm): 1%

CCN(C)C=Nc1cc(C)c(Oc2ccc(Cl)c(C(F)(F)F)c2)cc1C [N′-(4-(4-chloro-3-trifluoromethyl-phenoxy)-2,5-dimethyl-phenyl)-N-ethyl-N-methyl formamidine]
Observed fungicidal efficacy (% of untreated control) (Alternaria solani): 22% | Observed activity (% infection) (Phytophthora infestans [6]; 1 ppm): 0% | Observed efficacy (% of untreated control) (Pyrenophora teres; 0.25 ppm): 25% | Observed activity (% infection) (Phytophthora infestans [10]; 4 ppm): 33%

CC1CCCCN1CCCOC(=O)c1ccc(Cl)c(Cl)c1 (centres unmarked) [piperalin]
Observed activity (%) (Botrytis cinerea [4]; 0.016 ppm): 12%

O=C(NCCc1ncc(C(F)(F)F)cc1Cl)c1ccccc1C(F)(F)F [fluopyram]
Observed activity (%) (Botrytis cinerea [4]; 0.004 ppm): 4%

CCOC(=O)C1CC(=O)C(=C(O)C2CC2)C(=O)C1 (centres unmarked) [trinexapac-ethyl]
Observed activity (%) (Pyricularia oryzae [2]; 4 ppm): 2% | Observed fungicidal efficacy (%) (Septoria tritici [3]; 4 ppm): 2%

C[N+]1(C)CCCCC1 [Mepiquat-chloride]
Observed activity (% infection) (Phytophthora infestans [12]; 63 ppm): 14%
